Read-outs that look alike come from different tables or passages of the source.
Key:
[1] = test system: ben-1 mutant (ECA882) C. elegans; assay: microbe, parasite or virus in culture; conditions: Caenorhabditis elegans; for viability at 1 µM / viability at 2 µM / viability at 3.9 µM / viability at 15.6 µM / viability at 31.3 µM / viability at 62.5 µM / viability at 125 µM / viability at 250 µM / viability at 500 µM / viability at 1000 µM: read-out: C. elegans ben-1(e1880) development/viability
Outline: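 L1 larvae (~2 worms/μL in M9) in liquid NGM with 2-fold concentrated E. coli HB101, compound at 1% DMSO, 6 days at 20 °C shaking 165 rpm. Well images scored as summed worm-associated pixels, normalized to DMSO controls; relative viability averaged over at least three biological replicates.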

[2] = molecular target: B. taurus (heart) complex I (Bos taurus, UniProt P03887+P17694+P42026); assay: biochemical; type: biochemical; conditions: for IC50: B. taurus heart mitochondria, estimated from fitted dose-response curves, read-out: B. taurus Complex I IC50; for activity at 0.0001 µM / activity at 0.0005 µM / activity at 0.001 µM / activity at 0.0025 µM / activity at 0.005 µM / activity at 0.013 µM / activity at 0.025 µM / activity at 0.063 µM / activity at 0.125 µM / activity at 0.313 µM / activity at 0.625 µM / activity at 1.5 µM / activity at 3 µM / activity at 15 µM / activity at 37.5 µM / activity at 75 µM: read-out: B. taurus mitochondrial complex I activity; for Log IC50 B. taurus complex I: log10 of IC50 in µM, B. taurus mitochondria
Outline: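 Complex I activity followed as DCIP reduction (600 nm, 30 s reads, 15 min) with 80 μM NADH and 60 μM decylubiquinone in 25 mM KPi pH 7.5 containing 2 μM antimycin A and 2 mM KCN. Freeze-thawed mouse or bovine heart mitochondria at 0.2 mg/mL; initial-rate percent of solvent control, single-point 100 μM or dose-response.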

L1 wild-type C. elegans [3] = conditions: for Screen "Hit": 50 μM
L1 wild-type C. elegans [4] = assay: microbe, parasite or virus in culture; conditions: Caenorhabditis elegans, read-out: C. elegans KCN Survival Assay LC50, estimated from fitted dose-response curves; mean of at least two biological replicates
in vitro = conditions: human
[5] = read-out: C. elegans (ben-1) Development & Viability Assay LC50
[6] = read-out: C. elegans ben-1 log10 LC50 (converted)
[7] = HEK293 cells (Flp-In-293), HEK293 viability

B. taurus (heart) complex I, sequence (P03887 whole entry): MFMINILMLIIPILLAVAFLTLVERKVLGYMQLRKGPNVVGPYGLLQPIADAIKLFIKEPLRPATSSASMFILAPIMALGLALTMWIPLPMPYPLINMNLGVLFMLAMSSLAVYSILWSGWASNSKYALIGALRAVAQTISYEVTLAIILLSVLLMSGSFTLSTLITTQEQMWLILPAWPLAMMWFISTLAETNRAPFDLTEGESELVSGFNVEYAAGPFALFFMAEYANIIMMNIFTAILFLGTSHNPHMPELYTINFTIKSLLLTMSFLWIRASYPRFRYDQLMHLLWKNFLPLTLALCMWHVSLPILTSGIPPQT
B. taurus (heart) complex I, sequence (P17694 34-463): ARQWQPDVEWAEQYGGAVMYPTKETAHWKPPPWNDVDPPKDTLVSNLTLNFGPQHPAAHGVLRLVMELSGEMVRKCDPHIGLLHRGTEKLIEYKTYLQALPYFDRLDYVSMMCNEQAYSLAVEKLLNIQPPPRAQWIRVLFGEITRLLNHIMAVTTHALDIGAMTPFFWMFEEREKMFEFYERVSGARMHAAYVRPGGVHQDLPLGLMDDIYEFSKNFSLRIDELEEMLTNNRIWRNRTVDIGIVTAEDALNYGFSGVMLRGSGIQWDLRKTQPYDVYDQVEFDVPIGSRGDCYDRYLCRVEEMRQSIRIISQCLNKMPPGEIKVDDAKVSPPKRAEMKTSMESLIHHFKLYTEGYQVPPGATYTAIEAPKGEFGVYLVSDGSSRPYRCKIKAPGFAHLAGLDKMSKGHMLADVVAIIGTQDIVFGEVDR
B. taurus (heart) complex I, sequence (P42026 38-216): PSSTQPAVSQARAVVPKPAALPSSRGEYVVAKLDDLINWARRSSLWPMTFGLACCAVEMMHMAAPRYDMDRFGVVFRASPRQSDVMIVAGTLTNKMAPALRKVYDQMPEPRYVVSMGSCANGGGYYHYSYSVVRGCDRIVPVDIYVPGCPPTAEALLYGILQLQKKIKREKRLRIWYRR

## Cc1ccccc1OCCCn1c(C)nc2ccccc21 [Compound 7916923]
[1]; [5]
  LC50: 142 µM
[1]
  viability at 1 µM: 95.8%
  viability at 2 µM: 94.9%
  viability at 3.9 µM: 93.4%
  viability at 15.6 µM: 96%
  viability at 31.3 µM: 89.5%
  viability at 62.5 µM: 86.2%
  viability at 125 µM: 67.3%
  viability at 250 µM: 2.7%
  viability at 500 µM: 2.9%
  viability at 1000 µM: 2.3%
[1]; [6]
  LC50: 143 µM
[2]
  IC50: 6.67 µM
  activity at 0.0001 µM: 98.7%
  activity at 0.0005 µM: 101%
  activity at 0.001 µM: 103%
  activity at 0.0025 µM: 101%
  activity at 0.005 µM: 107%
  activity at 0.013 µM: 99.6%
  activity at 0.025 µM: 102%
  activity at 0.063 µM: 104%
  activity at 0.125 µM: 90.7%
  activity at 0.313 µM: 96.6%
  activity at 0.625 µM: 92.7%
  activity at 1.5 µM: 79.4%
  activity at 3 µM: 70.6%
  activity at 15 µM: 24.7%
  activity at 37.5 µM: 6.64%
  activity at 75 µM: 2.1%
  Log IC50 B. taurus complex I: 0.82 µM
L1 wild-type C. elegans [3]; hit = relative motility below 0.25 3 hours after removal of KCN
  Screen "Hit": Y (hits were identified as compounds that reduced relative motility below 0.25 (75% reduction))
L1 wild-type C. elegans [3]; Dose 0.2 µM, mean of at least three biological replicates
  C. elegans KCN Survival: 0.930
L1 wild-type C. elegans [3]; Dose 0.39 µM
  C. elegans KCN Survival: 1.083
L1 wild-type C. elegans [3]; Dose 1.56 µM
  C. elegans KCN Survival: 1.052
L1 wild-type C. elegans [3]; Dose 3.13 µM
  C. elegans KCN Survival: 0.985
L1 wild-type C. elegans [3]; Dose 6.25 µM
  C. elegans KCN Survival: 0.888
L1 wild-type C. elegans [3]; Dose 12.5 µM
  C. elegans KCN Survival: 0.491
L1 wild-type C. elegans [3]; Dose 25 µM
  C. elegans KCN Survival: 0.124
L1 wild-type C. elegans [3]; Dose 50 µM
  C. elegans KCN Survival: 0.136
L1 wild-type C. elegans [3]; Dose 100 µM
  C. elegans KCN Survival: 0.168
L1 wild-type C. elegans [4]
  LC50: 12.1 µM
In vitro
  CC50 at 2 days: 45.5 µM
In vitro; [7]
  viability at 2 days, 3.13 µM: 84.6%
  viability at 2 days, 25 µM: 73.1%
  viability at 2 days, 50 µM: 41.6%
  viability at 2 days, 100 µM: 9.6%
In vitro; HEK293 cells (Flp-In-293), HEK293 viability, Dose 12.5 µM
  viability at 2 days, 12.5 µM: 95.2%
In vitro; HEK293 viability, Dose 6.25 µM
  viability: 94.9%

## Brc1ccccc1OCCCCn1cnc2ccccc21 [Compound 7924576]
[1]; [5]
  LC50: 58.6 µM
[1]
  viability at 1 µM: 99.9%
  viability at 2 µM: 91.7%
  viability at 3.9 µM: 96.6%
  viability at 15.6 µM: 87.8%
  viability at 31.3 µM: 65.5%
  viability at 62.5 µM: 54%
  viability at 125 µM: 3.7%
  viability at 250 µM: 4.7%
  viability at 500 µM: 2.1%
  viability at 1000 µM: 0.7%
[1]; [6]
  LC50: 58.6 µM
[2]
  IC50: 1.14 µM
  activity at 0.0001 µM: 104%
  activity at 0.0005 µM: 101%
  activity at 0.001 µM: 108%
  activity at 0.0025 µM: 104%
  activity at 0.005 µM: 101%
  activity at 0.013 µM: 102%
  activity at 0.025 µM: 102%
  activity at 0.063 µM: 96.3%
  activity at 0.125 µM: 84.6%
  activity at 0.313 µM: 74.3%
  activity at 0.625 µM: 68%
  activity at 1.5 µM: 44.1%
  activity at 3 µM: 32%
  activity at 15 µM: 6.52%
  activity at 37.5 µM: 3.45%
  activity at 75 µM: 3.05%
  Log IC50 B. taurus complex I: 0.0569 µM
L1 wild-type C. elegans [3]; KCN survival assay, hit = relative motility below 0.25
  Screen "Hit": Y (hits were identified as compounds that reduced relative motility below 0.25 (75% reduction))
L1 wild-type C. elegans [3]; Dose 0.39 µM
  C. elegans KCN Survival: 0.969
L1 wild-type C. elegans [3]; Dose 1.56 µM
  C. elegans KCN Survival: 0.940
L1 wild-type C. elegans [3]; Dose 3.13 µM
  C. elegans KCN Survival: 0.862
L1 wild-type C. elegans [3]; Dose 6.25 µM
  C. elegans KCN Survival: 0.585
L1 wild-type C. elegans [3]; Dose 12.5 µM
  C. elegans KCN Survival: 0.135
L1 wild-type C. elegans [3]; Dose 25 µM
  C. elegans KCN Survival: 0.138
L1 wild-type C. elegans [3]; Dose 50 µM
  C. elegans KCN Survival: 0.159
L1 wild-type C. elegans [3]; Dose 100 µM
  C. elegans KCN Survival: 0.208
L1 wild-type C. elegans [4]
  LC50: 6.73 µM
In vitro; HEK293 Cell Viability Assay LC50, HEK293 cells, estimated from fitted dose-response curves, mean of at least two biological replicates
  CC50 at 2 days: 44.3 µM
In vitro; [7]
  viability at 2 days, 3.13 µM: 96.3%
  viability at 2 days, 25 µM: 82.8%
  viability at 2 days, 50 µM: 40.2%
  viability at 2 days, 100 µM: 6.9%
In vitro; HEK293 cells (Flp-In-293), HEK293 viability, Dose 6.25 µM
  viability at 2 days, 6.25 µM: 98.1%

From publication PMC11079024, “Identification of a family of species-selective complex I inhibitors as potential anthelmintics” (Nature Communications, 2024)
